Data taken from patent US20120184728A1, “Compound Amycolose Derivative, Method for Producing the Same, and Use of the Same” (priority 2009, published 2012).
Entries after “also recorded” stand apart in the source; their conditions may differ.

Tested on: Human prostate stromal cells PrSC
Test: Cell growth suppressive activity (MTT, Test Example 1)
Format: cell-based
Settings: 0.024 to 100 μg/mL, 3 days culture, MTT absorbance at 570 nm, result in words
Protocol: Human prostate stromal cells PrSC (product of Bio Whittaker) were added to DMEM (product of NISSUI PHARMACEUTICAL CO., LTD.) containing 10% by mass FBS (fetal bovine serum) (product of ICN Biomedicals) to prepare a cell suspension having a concentration of 5×10^4 cells/mL. The cell suspension was placed in a 96-well plate in an amount of 0.1 mL per well. Each of the amycolose derivatives (compounds 1, 2 and 3) was added to the wells at a final concentration of 0.024 μg/mL, 0.098 μg/mL, 0.391 μg/mL, 1.563 μg/mL, 6.25 μg/mL, 25 μg/mL or 100 μg/mL, followed by culturing in an incubator for 3 days at 37° C. and 5% CO2. Then, MTT (3-[4,5-dimethylthiazol-2-yl]-2,5-diphenyltetrazolium bromide) (product of Sigma Co.), which had been adjusted with a phosphate buffer to have a concentration of 5 mg/mL, was added to each well in an amount of 10 μL, followed by culturing in an incubator for 4 hours at 37° C. and 5% CO2. Subsequently, 10 μL of 20% by mass SDS (sodium dodecylsulphate) prepared with 10 mM hydrochloric acid was added to each well, and the plate was left to stand still overnight at 37° C. to dissolve formazan formed from MTT. Thereafter, the plate was measured for absorbance at 570 nm with an absorptiometer (hereinafter may be referred to as “amycolose derivative-added sample's absorbance”). Regarding as 100% the absorbance measured when no amycolose derivative was added (hereinafter may be referred to as “control absorbance”), the cell growth rate in each of the amycolose derivatives (compounds 1, 2 and 3) at the above concentrations was calculated using the following equation (1).
Cell growth rate (%)=amycolose derivative-added sample's absorbance/control absorbance×100 Equation (1)

Compound | cell growth suppressive activity (cell growth rate, FIG. 5)
Cc1[nH]c(C(=O)N[C@@H](C)[C@]2(O)CC(O)O[C@H](C)[C@H]2O)c(Cl)c1Cl (stereo partly drawn) [compound 1] | exhibit cell growth suppressive activity; also recorded: remarkable cell growth suppressive activity
CO[C@H]1C[C@@](O)([C@H](C)NC(=O)c2[nH]c(C)c(Cl)c2Cl)[C@H](O)[C@@H](C)O1 [compound 2] | exhibit cell growth suppressive activity
CO[C@@H]1C[C@@](O)([C@H](C)NC(=O)c2[nH]c(C)c(Cl)c2Cl)[C@H](O)[C@@H](C)O1 [compound 3] | exhibit cell growth suppressive activity
